Test results taken from US10947254B2, “Methods for treating ulcerative colitis using 3-((1R,3s,5S)-3-((7-((5-methyl-1H-pyrazol-3-yl)amino)-1,6-naphthyridin-5-yl)amino)-8-azabicyclo[3.2.1]octan-8-yl)propanenitrile” (priority 2015, dated 2021).

Test system: IL-4 induced STAT6 phosphorylation in THP-1 human monocytic cells
Settings: THP-1 cells

| Structure (SMILES) | THP-1 IL4 pIC50 |
| --- | --- |
| Cc1cnc2c(F)c(Nc3cc(C)[nH]n3)nc(N[C@@H]3C[C@H]4CC[C@@H](C3)N4S(=O)(=O)c3cccnc3)c2c1 [Example 8-20] | C (C represents a pEC50 value <6.7 (EC50>200 nM)) |
| Cc1cc(Nc2cc3ncc(S(C)(=O)=O)cc3c(N[C@@H]3C[C@H]4CC[C@@H](C3)N4C(=O)CC#N)n2)n[nH]1 [Example 6-51] | C (C represents a pEC50 value <6.7 (EC50>200 nM)) |
| COCCCN1[C@@H]2CC[C@H]1C[C@H](Nc1nc(Nc3cc(C)[nH]n3)cc3ncccc13)C2 [Example 1-15] | C (C represents a pEC50 value <6.7 (EC50>200 nM)) |
| Cc1cc(Nc2cc3nc(CN4CCOCC4)ccc3c(N[C@H]3C[C@H]4CCC[C@@H](C3)N4CC(F)(F)F)n2)n[nH]1 [Example 5-29] | B (B represents a pEC50 value between 6.7 and 7.5 (EC50 between 200 nM and 32 nM)) |
| Cc1cc(Nc2cc3ncccc3c(N[C@@H]3C[C@H]4CC[C@@H](C3)N4C[C@H]3CCC(=O)O3)n2)n[nH]1 [Example 1-29] | C (C represents a pEC50 value <6.7 (EC50>200 nM)) |
| C=CCOC(=O)N1[C@@H]2CC[C@H]1C[C@H](Nc1nc(Nc3cc(C)[nH]n3)cc3ncc(C(=O)OC)cc13)C2 [Example 6-40] | A (A represents a pEC50 value ≥7.5 (EC50≤32 nM)) |
| COCCOC(=O)N1[C@@H]2CCC[C@H]1C[C@H](Nc1nc(Nc3cc(C)[nH]n3)cc3ncccc13)C2 [Example 3-9] | A (A represents a pEC50 value ≥7.5 (EC50≤32 nM)) |
| Cc1cnc2c(F)c(Nc3cc(C)[nH]n3)nc(N[C@@H]3C[C@H]4CC[C@@H](C3)N4S(=O)(=O)N3CC(C#N)C3)c2c1 [Example 8-19] | C (C represents a pEC50 value <6.7 (EC50>200 nM)) |
| Cc1cc(Nc2cc3ncccc3c(N[C@@H]3C[C@H]4CC[C@@H](C3)N4C(C)CC#N)n2)n[nH]1 (stereo partly drawn) [Example 1-21] | A (A represents a pEC50 value ≥7.5 (EC50≤32 nM)) |
| COc1ccnc2cc(Nc3cc(C)[nH]n3)nc(N[C@@H]3C[C@H]4CC[C@@H](C3)N4C(=O)CN(C)C)c12 [Example 7-3] | C (C represents a pEC50 value <6.7 (EC50>200 nM)) |
| CCS(=O)(=O)N1[C@@H]2CCC[C@H]1C[C@H](Nc1nc(Nc3cc(C)[nH]n3)cc3nc(CN4CCOCC4)ccc13)C2 [Example 5-23] | A (A represents a pEC50 value ≥7.5 (EC50≤32 nM)) |
| Cc1cc(Nc2cc3ncc(S(C)(=O)=O)cc3c(N[C@@H]3C[C@H]4CC[C@@H](C3)N4[C@@H]3CCOC3=O)n2)n[nH]1 [Example 6-57] | C (C represents a pEC50 value <6.7 (EC50>200 nM)) |
| C=CCOC(=O)N1[C@@H]2CC[C@H]1C[C@H](Nc1nc(Nc3cc(C)[nH]n3)cc3ncccc13)C2 [Example 3-4] | A (A represents a pEC50 value ≥7.5 (EC50≤32 nM)) |
| Cc1cc(Nc2cc3ncccc3c(N[C@@H]3C[C@H]4CC[C@@H](C3)N4C(=O)OCC(C)C)n2)n[nH]1 [Example 3-3] | A (A represents a pEC50 value ≥7.5 (EC50≤32 nM)) |
| CCC(C)C(=O)N1C2CCCC1CC(Nc1nc(Nc3cc(C)[nH]n3)cc3ncccc13)C2 (stereo not drawn) [Example 2-18] | A (A represents a pEC50 value ≥7.5 (EC50≤32 nM)) |
| CNC(=O)CN1[C@@H]2CC[C@H]1C[C@H](Nc1nc(Nc3cc(C)[nH]n3)cc3ncc(C(=O)OC)cc13)C2 [Example 6-42] | C (C represents a pEC50 value <6.7 (EC50>200 nM)) |
| C=CCS(=O)(=O)N1[C@@H]2CCC[C@H]1C[C@H](Nc1nc(Nc3cc(C)[nH]n3)cc3ncccc13)C2 [Example 4-22] | A (A represents a pEC50 value ≥7.5 (EC50≤32 nM)) |
| Cc1cc(Nc2cc3ncc(S(C)(=O)=O)cc3c(N[C@@H]3C[C@H]4CC[C@@H](C3)N4[C@@H]3CCOC3=O)n2)n[nH]1 [Example 6-58] | C (C represents a pEC50 value <6.7 (EC50>200 nM)) |
| Cc1cc(Nc2cc3ncccc3c(N[C@@H]3C[C@H]4CCC[C@@H](C3)N4S(C)(=O)=O)n2)n[nH]1 [Example 4-16] | A (A represents a pEC50 value ≥7.5 (EC50≤32 nM)) |
| Cc1cc(Nc2cc3nc(CS(C)(=O)=O)ccc3c(N[C@@H]3C[C@H]4CC[C@@H](C3)N4CCF)n2)n[nH]1 [Example 5-41] | C (C represents a pEC50 value <6.7 (EC50>200 nM)) |
| Cc1cc(Nc2cc3ncccc3c(N[C@@H]3C[C@H]4CC[C@@H](C3)N4CC(=O)N[C@H]3CCOC3=O)n2)n[nH]1 [Example 1-12] | C (C represents a pEC50 value <6.7 (EC50>200 nM)) |
| CNC(=O)CN1[C@@H]2CC[C@H]1C[C@H](Nc1nc(Nc3cc(C)[nH]n3)cc3ncccc13)C2 [Example 1-7] | C (C represents a pEC50 value <6.7 (EC50>200 nM)) |
| COC(=O)CCCN1[C@@H]2CCC[C@H]1C[C@H](Nc1nc(Nc3cc(C)[nH]n3)cc3ncccc13)C2 [Example 1-34] | C (C represents a pEC50 value <6.7 (EC50>200 nM)) |
| Cc1cc(Nc2cc3ncccc3c(N[C@@H]3C[C@H]4CCC[C@@H](C3)N4CC(=O)OC(C)C)n2)n[nH]1 [Example 1-35] | A (A represents a pEC50 value ≥7.5 (EC50≤32 nM)) |
| Cc1cnc2cc(Nc3cc(C)[nH]n3)nc(N[C@@H]3C[C@H]4CC[C@@H](C3)N4Cc3ccncc3)c2c1 [Example 6-2] | A (A represents a pEC50 value ≥7.5 (EC50≤32 nM)) |
| COc1cnc2cc(Nc3cc(C)[nH]n3)nc(N[C@@H]3C[C@H]4CC[C@@H](C3)N4CCC#N)c2c1 [Example 6-11] | A (A represents a pEC50 value ≥7.5 (EC50≤32 nM)) |

| Structure (SMILES) | THP-1 IL4 pIC50 |
| --- | --- |
| COC(=O)c1cnc2cc(Nc3cc(C)[nH]n3)nc(N[C@@H]3C[C@H]4CC[C@@H](C3)N4CCC#N)c2c1 [Example 6-32] | A (A represents a pEC50 value ≥7.5 (EC50≤32 nM)) |
| COC(=O)c1cnc2cc(Nc3cc(C)[nH]n3)nc(N[C@@H]3C[C@H]4CC[C@@H](C3)N4C[C@H]3CCC(=O)O3)c2c1 [Example 6-46] | C (C represents a pEC50 value <6.7 (EC50>200 nM)) |
| Cc1cc(Nc2cc3nc(CS(C)(=O)=O)ccc3c(N[C@@H]3C[C@H]4CC[C@@H](C3)N4CCCF)n2)n[nH]1 [Example 5-42] | C (C represents a pEC50 value <6.7 (EC50>200 nM)) |
| COC(=O)c1cnc2cc(Nc3cc(C)[nH]n3)nc(N[C@@H]3C[C@H]4CC[C@@H](C3)N4CC(=O)OC(C)C)c2c1 [Example 6-41] | A (A represents a pEC50 value ≥7.5 (EC50≤32 nM)) |
| COc1cnc2cc(Nc3cc(C)[nH]n3)nc(N[C@@H]3C[C@H]4CCC[C@@H](C3)N4C(=O)CN(C)C)c2c1 [Example 6-30] | C (C represents a pEC50 value <6.7 (EC50>200 nM)) |
| Cc1cc(Nc2cc3nc(CN4CCOCC4)ccc3c(N[C@@H]3C[C@H]4CCC[C@@H](C3)N4CCC#N)n2)n[nH]1 [Example 5-26] | A (A represents a pEC50 value ≥7.5 (EC50≤32 nM)) |
| COC(=O)CN1[C@@H]2CC[C@H]1C[C@H](Nc1nc(Nc3cc(C)[nH]n3)cc3ncccc13)C2 [Example 1-1] | C (C represents a pEC50 value <6.7 (EC50>200 nM)) |
| Cc1cc(Nc2cc3ncccc3c(N[C@@H]3C[C@H]4CCC[C@@H](C3)N4S(=O)(=O)CC(C)C)n2)n[nH]1 [Example 4-17] | A (A represents a pEC50 value ≥7.5 (EC50≤32 nM)) |
| Cc1cc(Nc2cc3ncccc3c(N[C@@H]3C[C@H]4CCC[C@@H](C3)N4CC(=O)N[C@H]3CCOC3=O)n2)n[nH]1 [Example 1-42] | C (C represents a pEC50 value <6.7 (EC50>200 nM)) |
| Cc1cc(Nc2cc3ncc(S(C)(=O)=O)cc3c(N[C@@H]3C[C@H]4CC[C@@H](C3)N4CCC#N)n2)n[nH]1 [Example 6-50] | C (C represents a pEC50 value <6.7 (EC50>200 nM)) |
| Cc1cc(Nc2nc(NC3CC4CCC(C3)N4C(=O)C(C)O)c3cccnc3c2F)n[nH]1 (stereo not drawn) [Example 8-8] | C (C represents a pEC50 value <6.7 (EC50>200 nM)) |
| Cc1cc(Nc2cc3ncccc3c(N[C@@H]3C[C@H]4CC[C@@H](C3)N4CC(C)C)n2)n[nH]1 [Example 1-13] | A (A represents a pEC50 value ≥7.5 (EC50≤32 nM)) |
| Cc1cc(Nc2nc(N[C@@H]3C[C@H]4CCC[C@@H](C3)N4C(=O)CN(C)C)c3cccnc3c2F)n[nH]1 [Example 8-15] | C (C represents a pEC50 value <6.7 (EC50>200 nM)) |
| COC(=O)CCCN1[C@@H]2CC[C@H]1C[C@H](Nc1nc(Nc3cc(C)[nH]n3)cc3ncccc13)C2 [Example 1-3] | C (C represents a pEC50 value <6.7 (EC50>200 nM)) |
| COC(=O)CN1[C@@H]2CCC[C@H]1C[C@H](Nc1nc(Nc3cc(C)[nH]n3)cc3ncccc13)C2 [Example 1-32] | C (C represents a pEC50 value <6.7 (EC50>200 nM)) |
| Cc1cc(Nc2cc3ncccc3c(N[C@@H]3C[C@H]4CC[C@@H](C3)N4CC(=O)N(C)C)n2)n[nH]1 [Example 1-8] | C (C represents a pEC50 value <6.7 (EC50>200 nM)) |
| CCOC(=O)N1[C@@H]2CCC[C@H]1C[C@H](Nc1nc(Nc3cc(C)[nH]n3)cc3ncccc13)C2 [Example 3-6] | A (A represents a pEC50 value ≥7.5 (EC50≤32 nM)) |
| COC(=O)CCN1[C@@H]2CCC[C@H]1C[C@H](Nc1nc(Nc3cc(C)[nH]n3)cc3ncccc13)C2 [Example 1-33] | C (C represents a pEC50 value <6.7 (EC50>200 nM)) |
| Cc1ccc(S(=O)(=O)N2[C@@H]3CCC[C@H]2C[C@H](Nc2nc(Nc4cc(C)[nH]n4)cc4ncccc24)C3)cn1 [Example 4-25] | A (A represents a pEC50 value ≥7.5 (EC50≤32 nM)) |
| CCS(=O)(=O)N1[C@@H]2CC[C@H]1C[C@H](Nc1nc(Nc3cc(C)[nH]n3)c(F)c3ncccc13)C2 [Example 8-3] | A (A represents a pEC50 value ≥7.5 (EC50≤32 nM)) |
| Cc1cc(Nc2cc3ncccc3c(N[C@@H]3C[C@H]4CC[C@@H](C3)N4C(=O)CN(C)C)n2)n[nH]1 [Example 2-5] | C (C represents a pEC50 value <6.7 (EC50>200 nM)) |
| Cc1cc(Nc2cc3ncc(S(C)(=O)=O)cc3c(N[C@@H]3C[C@H]4CC[C@@H](C3)N4CCCF)n2)n[nH]1 [Example 6-55] | C (C represents a pEC50 value <6.7 (EC50>200 nM)) |
| Cc1cc(Nc2cc3ncccc3c(N[C@@H]3C[C@H]4CC[C@@H](C3)N4CC(=O)N[C@@H]3CCOC3=O)n2)n[nH]1 [Example 1-11] | C (C represents a pEC50 value <6.7 (EC50>200 nM)) |
| COc1ccnc2cc(Nc3cc(C)[nH]n3)nc(N[C@@H]3C[C@H]4CC[C@@H](C3)N4CCC#N)c12 [Example 7-6] | A (A represents a pEC50 value ≥7.5 (EC50≤32 nM)) |
| Cc1cc(Nc2cc3ncccc3c(N[C@@H]3C[C@H]4CCC[C@@H](C3)N4Cc3cccc(O)c3)n2)n[nH]1 [Example 1-49] | A (A represents a pEC50 value ≥7.5 (EC50≤32 nM)) |
